Like-named read-outs stand apart in the source and are kept apart here.
Test system: HCT116 cells
Experiment: Cell viability assay (CellTiter-Glo, 72 hours) in HCT116 human colorectal cancer cells
Format: cell-based
Conditions: HCT116, 72 hours, read-out: Activity
Summary of the method: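 Ten-point IC50 came from an asymmetric five-parameter fit of luminescence corrected to vehicle wells. ATP content was measured by CellTiter-Glo 72 h after dosing at 37 °C. Cells were seeded at 2,000/well the day before, with 0.5% DMSO in all wells.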

CC#CCN1C(=O)c2ccccc2Sc2cc(NC(=S)N[C@H]3C[C@H](OC)C3)cnc21 [Table 4: —CH2CCMe; trans-3-MeOcBu; N]
IC50 (Table 4): < 0.5 µM

CC#CCN1C(=O)c2ccccc2Sc2cc(NC(=S)N[C@H]3C[C@H](O)C3)ccc21 [Table 4: —CH2CCMe; trans-3-OH-cBu; CH]
IC50 (Table 4): < 0.5 µM

CC#CCN1C(=O)c2ccccc2Sc2cc(NC(=S)N[C@H]3C[C@H](O)C3)cnc21 [Table 4: —CH2CCMe; trans-3-OH-cBu; N]
IC50 (Table 4): < 0.5 µM

O=C1c2ccccc2Sc2cc(NC3CC(O)C3)ccc2N1CC#CCl (stereo not drawn) [Table 6: —CH2CCCl; 3-HOcBu; CH/CH; S]
IC50 (Table 6): < 0.5 µM

O=C1c2ccccc2Sc2cc(NC3CC(O)C3)cnc2N1CC#CCl (stereo not drawn) [Table 6: —CH2CCCl; 3-HOcBu; CH/N; S]
IC50 (Table 6): < 0.5 µM

COCC1CC(Nc2cnc3c(c2)Sc2ccccc2C(=O)N3CC#CCl)C1 (stereo not drawn) [Table 6: —CH2CCCl; 3-MeOCH2-cBu; CH/N; S]
IC50 (Table 6): < 0.5 µM

COC1CC(Nc2ccc3c(c2)Sc2ccccc2C(=O)N3CC#CCl)C1 (stereo not drawn) [Table 6: —CH2CCCl; 3-MeOcBu; CH/CH; S]
IC50 (Table 6): < 0.5 µM

COC1CC(Nc2cnc3c(c2)Sc2ccccc2C(=O)N3CC#CCl)C1 (stereo not drawn) [Table 6: —CH2CCCl; 3-MeOcBu; CH/N; S]
IC50 (Table 6): < 0.5 µM

O=C1c2ccccc2Sc2cc(NC3COC3)ccc2N1CC#CCl [Table 6: —CH2CCCl; oxetan-3-yl; CH/CH; S]
IC50 (Table 6): < 0.5 µM

O=C1c2ccccc2Sc2cc(NC3COC3)cnc2N1CC#CCl [Table 6: —CH2CCCl; oxetan-3-yl; CH/N; S]
IC50 (Table 6): < 0.5 µM

C#CCN1C(=O)c2ccccc2Sc2cc(NC3CC(O)C3)ccc21 (stereo not drawn) [Table 6: —CH2CCH; 3-HOcBu; CH/CH; S]
IC50 (Table 6): < 0.5 µM

C#CCN1C(=O)c2ccccc2Sc2cc(NC3CC(O)C3)cnc21 (stereo not drawn) [Table 6: —CH2CCH; 3-HOcBu; CH/N; S]
IC50 (Table 6): < 0.5 µM

C#CCN1C(=O)c2ccccc2Sc2cc(NC3CC(COC)C3)ccc21 (stereo not drawn) [Table 6: —CH2CCH; 3-MeOCH2-cBu; CH/CH; S]
IC50 (Table 6): < 0.5 µM

C#CCN1C(=O)c2ccccc2Sc2cc(NC3CC(COC)C3)cnc21 (stereo not drawn) [Table 6: —CH2CCH; 3-MeOCH2-cBu; CH/N; S]
IC50 (Table 6): < 0.5 µM

C#CCN1C(=O)c2ccccc2Sc2cc(NC3CC(OC)C3)ccc21 (stereo not drawn) [Table 6: —CH2CCH; 3-MeOcBu; CH/CH; S]
IC50 (Table 6): < 0.5 µM

C#CCN1C(=O)c2ccccc2Sc2cc(NC3CC(OC)C3)cnc21 (stereo not drawn) [Table 6: —CH2CCH; 3-MeOcBu; CH/N; S]
IC50 (Table 6): < 0.5 µM

C#CCN1C(=O)c2ccccc2Sc2cc(NC3COC3)cnc21 [Table 6: —CH2CCH; oxetan-3-yl; CH/N; S]
IC50 (Table 6): < 0.5 µM

CC#CCN1C(=O)c2ccccc2Sc2cc(NC3CC(CO)C3)ccc21 (stereo not drawn) [Table 6: —CH2CCMe; 3-HOCH2-cBu; CH/CH; S, 10-(But-2-yn-1-yl)-7-((3-(hydroxymethyl)cyclobutyl)amino)dibenzo[b,f][1,4]thiazepin-11 (10H)-one]
IC50 (Homo sapiens, HCT-116, Table 6): < 0.5 µM

CC#CCN1C(=O)c2ccccc2Sc2cc(NC3CC(CO)C3)cnc21 (stereo not drawn) [Table 6: —CH2CCMe; 3-HOCH2-cBu; CH/N; S]
IC50 (Table 6): < 0.5 µM

CC#CCN1C(=O)c2ccccc2Cc2cc(NC3CC(O)C3)ccc21 (stereo not drawn) [Table 6: —CH2CCMe; 3-HOcBu; CH/CH; CH2]
IC50 (Table 6): < 0.5 µM

CC#CCN1C(=O)c2ccccc2Sc2cc(NC3CC(O)C3)cnc21 (stereo not drawn) [Table 6: —CH2CCMe; 3-HOcBu; CH/N; S]
IC50 (Table 6): < 0.5 µM

CC#CCN1C(=O)c2ccccc2Sc2cc(NC3CC(COC)C3)cnc21 (stereo not drawn) [Table 6: —CH2CCMe; 3-MeOCH2-cBu; CH/N; S, 11-(But-2-yn-1-yl)-3-((3-(methoxymethyl)cyclobutyl)amino)benzo[f]pyrido[3,2-b][1,4]thiazepin-10(11H)-one]
IC50 (Homo sapiens, HCT-116, Table 6): < 0.5 µM

CC#CCN1C(=O)c2ccccc2Sc2cc(NC3CC(OC)C3)ccc21 (stereo not drawn) [Table 6: —CH2CCMe; 3-MeOcBu; CH/CH; S, 10-(But-2-yn-1-yl)-7-((3-methoxycyclobutyl)amino)dibenzo[b,f][1,4]thiazepin-11 (10H)-one]
IC50 (Homo sapiens, HCT-116, Table 6): < 0.5 µM

CC#CCN1C(=O)c2ccccc2Sc2cc(NC3CC(OC)C3)cnc21 (stereo not drawn) [Table 6: —CH2CCMe; 3-MeOcBu; CH/N; S]
IC50 (Table 6): < 0.5 µM

CC#CCN1C(=O)c2ccccc2Cc2cc(NCCCO)ccc21 [Table 6: —CH2CCMe; (CH2)3 OH; CH/CH; CH2]
IC50 (Table 6): < 0.5 µM

CC#CCN1C(=O)c2ccccc2Sc2cc(NCCCO)ccc21 [Table 6: —CH2CCMe; (CH2)3OH; CH/CH; S]
IC50 (Table 6): < 0.5 µM

CC#CCN1C(=O)c2ccccc2Cc2cc(NCCCOC)ccc21 [Table 6: —CH2CCMe; (CH2)3OMe; CH/CH; CH2]
IC50 (Table 6): < 0.5 µM

CC#CCN1C(=O)c2ccccc2Sc2cc(NCCCOC)ccc21 [Table 6: —CH2CCMe; (CH2)3OMe; CH/CH; S]
IC50 (Table 6): < 0.5 µM

CC#CCN1C(=O)c2ccccc2Sc2cc(NCCCOC)cnc21 [Table 6: —CH2CCMe; (CH2)3OMe; CH/N; S]
IC50 (Table 6): < 0.5 µM

CC#CCN1C(=O)c2ccccc2Sc2cc(NC3CCCC3)ccc21 [Table 6: —CH2CCMe; cPent; CH/CH; S, 10-(But-2-yn-1-yl)-7-(cyclopentylamino)dibenzo[b,f][1,4]thiazepin-11 (10H)-one]
IC50 (Homo sapiens, HCT-116, Table 6): < 0.5 µM

CC#CCN1C(=O)c2ccccc2Sc2cc(NC3CCCC3)cnc21 [Table 6: —CH2CCMe; cPent; CH/N; S, 11-(But-2-yn-1-yl)-3-(cyclopentylamino)benzo[f]pyrido[3,2-b][1,4]thiazepin-10(11H)-one]
IC50 (Homo sapiens, HCT-116, Table 6): < 0.5 µM

CC#CCN1C(=O)c2ccccc2Sc2cc(NC3COC3)ccc21 [Table 6: —CH2CCMe; oxetan-3-yl; CH/CH; S, 10-(But-2-yn-1-yl)-7-(oxetan-3-ylamino)dibenzo[b,f][1,4]thiazepin-11 (10H)-one]
IC50 (Homo sapiens, HCT-116, Table 6): < 0.5 µM

CC#CCN1C(=O)c2ccccc2Sc2cc(NC3COC3)cnc21 [Table 6: —CH2CCMe; oxetan-3-yl; CH/N; S]
IC50 (Table 6): < 0.5 µM

COc1ccc(C(=O)Nc2ccc3c(c2)Cc2ccccc2C(=O)N3CC#CC(F)(F)F)cc1 [Table 9: —CH2CCCF3; 4-MeOPh; CH2, 4-Methoxy-N-(6-oxo-5-(4,4,4-trifluorobut-2-yn-1-yl)-6, 11-dihydro-5H-dibenzo[b,e]azepin-2-yl)benzamide]
IC50 (Homo sapiens, HCT-116, Table 9): < 0.5 µM

COCC1CC(C(=O)Nc2ccc3c(c2)C(C#N)c2ccccc2C(=O)N3CC#CCF)C1 (stereo not drawn) [Table 9: —CH2CCCH2F; 3-MeOCH2-cBu; CHCN]
IC50 (Table 9): < 0.5 µM

COC1CC(C(=O)Nc2ccc3c(c2)C(C#N)c2ccccc2C(=O)N3CC#CCF)C1 (stereo not drawn) [Table 9: —CH2CCCH2F; cis-3-MeOcBu; CHCN]
IC50 (Table 9): < 0.5 µM

COCC1CC(C(=O)Nc2ccc3c(c2)Cc2ccccc2C(=O)N3CC#CC2CC2)C1 (stereo not drawn) [Table 9: —CH2CCCPr; 3-MeOCH2-cBu; CH2]
IC50 (Table 9): < 0.5 µM

CO[C@H]1C[C@@H](C(=O)Nc2ccc3c(c2)Cc2ccccc2C(=O)N3CC#CC2CC2)C1 [Table 9: —CH2CCCPr; cis-3-MeOcBu; CH2]
IC50 (Table 9): < 0.5 µM

CO[C@H]1C[C@H](C(=O)Nc2ccc3c(c2)Cc2ccccc2C(=O)N3CC#CC2CC2)C1 [Table 9: —CH2CCCPr; trans-3-MeOcBu; CH2]
IC50 (Table 9): < 0.5 µM

COCC1CC(C(=O)Nc2ccc3c(c2)C(C)(O)c2ccccc2C(=O)N3CC#CCl)C1 (stereo not drawn) [Table 9: —CH2CCCl; 3-MeOCH2-cBu; CMeOH]
IC50 (Table 9): < 0.5 µM

COc1ccc(C(=O)Nc2ccc3c(c2)C(C)(O)c2ccccc2C(=O)N3CC#CCl)cc1 (stereo not drawn) [Table 9: —CH2CCCl; 4-MeOPh; CMeOH]
IC50 (Table 9): < 0.5 µM

CO[C@H]1C[C@@H](C(=O)Nc2ccc3c(c2)C(C)(O)c2ccccc2C(=O)N3CC#CCl)C1 (stereo partly drawn) [Table 9: —CH2CCCl; cis-3-MeOcBu; CMeOH]
IC50 (Table 9): < 0.5 µM
